From patent US20100267561A1, “HERBICIDAL PYRIDAZINONE DERIVATIVES” (priority 2007, published 2010)
Read-outs that look alike come from different tables or passages of the source.

Columns and labels:
Assay type in all cases: in vivo
[1] = tested on: giant foxtail (Setaria faberi); assay: Test A pre-/postemergence plant response; details: Setaria faberi, 240 h, read-out: Plant response rating, Foxtail, Giant; for pest or weed control at 125 g/ha: 125 g ai/ha; for pest or weed control at 500 g/ha: 500 g ai/ha
Outline: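 Greenhouse pot test: loam–sand soil; pre- and postemergence sprays applied same day; post plants 2–10 cm, 1–2 leaves. Readout ~10 d, visual % injury vs untreated (0 = none, 100 = complete control).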

[2] = tested on: blackgrass (Alopecurus myosuroides); assay: Test B pre-/postemergence plant response; details: Preemergence
Text: (§1) Seeds of plant species selected from blackgrass (Alopecurus myosuroides), downy bromegrass (Bromus tectorum), green foxtail (Setaria viridis), Italian ryegrass (Lolium multiflorum), wheat (Triticum aestivum), wild oat (Avena fatua), catchweed bedstraw (Galium aparine), bermudagrass (Cynodon dactylon), surinam grass (Brachiaria decumbens), cocklebur (Xanthium strumarium), corn (Zea mays), large crabgrass (Digitaria sanguinalis), woolly cupgrass (Eriochloa villosa), giant foxtail (Setaria faberii), goosegrass (Eleusine indica), johnsongrass (Sorghum halepense), kochia (Kochia scoparia), lambsquarters (Chenopodium album), morningglory (Ipomoea coccinea), eastern black (E.B.) nightshade (Solanum ptycanthum), yellow nutsedge (Cyperus esculentus), pigweed (Amaranthus retroflexus), common ragweed (Ambrosia elation), Russian thistle (Salsola iberica), soybean (Glycine max), common (oilseed) sunflower (Helianthus annuus), and velvetleaf (Abutilon theophrasti) were planted and treated preemergence with test chemicals formulated in a non-phytotoxic solvent mixture which included a surfactant.
(§2) At the same time, plants selected from these crop and weed species and also winter barley (Hordeum vulgare), canarygrass (Phalaris minor), chickweed (Stellaria media) and windgrass (Apera spica-venti) were treated with postemergence applications of some of the test chemicals formulated in the same manner. Plants ranged in height from 2 to 18 cm (1- to 4-leaf stage) for postemergence treatments.
(§3) Plant species in the flooded paddy test consisted of rice (Oryza sativa), umbrella sedge (Cyperus difformis), ducksalad (Heteranthera limosa) and barnyardgrass (Echinochloa crus-galli) grown to the 2-leaf stage for testing. At time of treatment, test pots were flooded to 3 cm above the soil surface, treated by application of test compounds directly to the paddy water, and then maintained at that water depth for the duration of the test. Treated plants and controls were maintained in a greenhouse for 13 to 15 days, after which time all species were compared to controls and visually evaluated. Plant response ratings, summarized in Table B, are based on a scale of 0 to 100 where 0 is no effect and 100 is complete control. A dash (-) response means no test result.

[3] = tested on: giant foxtail (Setaria faberii); assay: Test B pre-/postemergence plant response; details: Preemergence
Text: as §1, §2, §3

[4] = tested on: johnsongrass (Sorghum halepense); assay: Test B pre-/postemergence plant response; details: Preemergence
Text: as §1, §2, §3

[5] = tested on: velvetleaf (Abutilon theophrasti); assay: Test B pre-/postemergence plant response; details: Preemergence
Text: as §1, §2, §3

[6] = tested on: bermudagrass (Cynodon dactylon); assay: Test B pre-/postemergence plant response; details: Preemergence
Text: as §1, §2, §3

[7] = tested on: soybean (Glycine max); assay: Test B pre-/postemergence plant response; details: Preemergence
Text: as §1, §2, §3

[8] = tested on: wheat (Triticum aestivum); assay: Test B pre-/postemergence plant response; details: Preemergence
Text: as §1, §2, §3

[9] = tested on: downy bromegrass (Bromus tectorum); assay: Test B pre-/postemergence plant response; details: Preemergence
Text: as §1, §2, §3

[10] = tested on: pigweed (Amaranthus retroflexus); assay: Test B pre-/postemergence plant response; details: Preemergence
Text: as §1, §2, §3

[11] = tested on: goosegrass (Eleusine indica); assay: Test B pre-/postemergence plant response; details: Preemergence
Text: as §1, §2, §3

[12] = tested on: common (oilseed) sunflower (Helianthus annuus); assay: Test B pre-/postemergence plant response; details: Preemergence
Text: as §1, §2, §3

[13] = post-emergence, Postemergence, 0 to 100 scale, 0 no effect, 100 complete control
[14] = pre-emergence, Preemergence, 0 to 100 scale (0 no effect, 100 complete control)

**Q.** How did the pest or weed control at 125 g/ha [1, 13] turn out when `Cc1cn(-c2ccc(Cl)cc2)nc1-c1c(O)cnn(C)c1=O` [Compound 30, 4-[1-(4-chlorophenyl)-4-methyl-1H-pyrazol-3-yl]-5-hydroxy-2-methyl-3(2H)-pyridazinone] was run?
**A.** 80%

**Q.** What about the pest or weed control at 500 g/ha [1, 13] of the same compound?
**A.** 90%

**Q.** What about the pest or weed control at 125 g/ha [1, 14] of the same compound?
**A.** 100%

**Q.** What about the pest or weed control at 500 g/ha [1, 14] of the same compound?
**A.** 100%

**Q.** What about the pest or weed control at 16 g/ha ([2]; Alopecurus myosuroides, pre-emergence, 16 g ai/ha, scale 0 to 100 (0 no effect, 100 complete control), read-out: Plant response rating, Blackgrass) of the same compound?
**A.** 60%

**Q.** What about the pest or weed control at 31 g/ha ([2]; Alopecurus myosuroides, pre-emergence, 31 g ai/ha, 0 to 100 scale, 0 no effect, 100 complete control, read-out: Plant response rating, Blackgrass) of the same compound?
**A.** 100%

**Q.** And the pest or weed control at 62 g/ha ([2]; Alopecurus myosuroides, pre-emergence, 62 g ai/ha, scale 0 to 100, read-out: Plant response rating, Blackgrass)?
**A.** 100%

**Q.** And the “Blackgrass plant response rating” value ([2]; 8 g ai/ha, scale 0 to 100)?
**A.** 0

**Q.** What about the “Foxtail, Giant plant response rating” value ([3]; 8 g ai/ha, scale 0 to 100) of the same compound?
**A.** 60

**Q.** And the pest or weed control at 16 g/ha ([3]; Setaria faberi, pre-emergence, 16 g ai/ha, scale 0 to 100 (0 no effect, 100 complete control), read-out: Plant response rating, Foxtail, Giant)?
**A.** 98%

**Q.** And the pest or weed control at 31 g/ha ([3]; Setaria faberi, pre-emergence, 31 g ai/ha, 0 to 100 scale, 0 no effect, 100 complete control, read-out: Plant response rating, Foxtail, Giant)?
**A.** 100%

**Q.** What about the pest or weed control at 62 g/ha ([3]; Setaria faberi, pre-emergence, 62 g ai/ha, scale 0 to 100, read-out: Plant response rating, Foxtail, Giant) of the same compound?
**A.** 100%

**Q.** And the “Johnsongrass plant response rating” value ([4]; 8 g ai/ha, scale 0 to 100)?
**A.** 0

**Q.** And the pest or weed control at 16 g/ha ([4]; Sorghum halepense, pre-emergence, 16 g ai/ha, scale 0 to 100 (0 no effect, 100 complete control), read-out: Plant response rating, Johnsongrass)?
**A.** 50%

**Q.** What about the pest or weed control at 31 g/ha ([4]; Sorghum halepense, pre-emergence, 31 g ai/ha, 0 to 100 scale, 0 no effect, 100 complete control, read-out: Plant response rating, Johnsongrass) of the same compound?
**A.** 50%

**Q.** And the pest or weed control at 62 g/ha ([4]; Sorghum halepense, pre-emergence, 62 g ai/ha, scale 0 to 100, read-out: Plant response rating, Johnsongrass)?
**A.** 98%

**Q.** And the pest or weed control at 16 g/ha ([5]; Abutilon theophrasti, pre-emergence, 16 g ai/ha, scale 0 to 100 (0 no effect, 100 complete control), read-out: Plant response rating, Velvetleaf)?
**A.** 0%

**Q.** What about the pest or weed control at 31 g/ha ([5]; Abutilon theophrasti, pre-emergence, 31 g ai/ha, 0 to 100 scale, 0 no effect, 100 complete control, read-out: Plant response rating, Velvetleaf) of the same compound?
**A.** 0%

**Q.** And the pest or weed control at 62 g/ha ([5]; Abutilon theophrasti, pre-emergence, 62 g ai/ha, scale 0 to 100, read-out: Plant response rating, Velvetleaf)?
**A.** 0%

**Q.** What about the “Velvetleaf plant response rating” value ([5]; 8 g ai/ha, scale 0 to 100) of the same compound?
**A.** 0

**Q.** What about the pest or weed control at 16 g/ha ([6]; Cynodon dactylon, pre-emergence, 16 g ai/ha, scale 0 to 100 (0 no effect, 100 complete control), read-out: Plant response rating, Bermudagrass) of the same compound?
**A.** 90%

**Q.** And the pest or weed control at 31 g/ha ([6]; Cynodon dactylon, pre-emergence, 31 g ai/ha, 0 to 100 scale, 0 no effect, 100 complete control, read-out: Plant response rating, Bermudagrass)?
**A.** 100%

**Q.** And the pest or weed control at 62 g/ha ([6]; Cynodon dactylon, pre-emergence, 62 g ai/ha, scale 0 to 100, read-out: Plant response rating, Bermudagrass)?
**A.** 100%

**Q.** And the “Bermudagrass plant response rating” value ([6]; 8 g ai/ha, scale 0 to 100 (0 no effect, 100 complete control))?
**A.** 60

**Q.** And the plant injury at 16 g/ha ([7]; Glycine max, pre-emergence, 16 g ai/ha, scale 0 to 100 (0 no effect, 100 complete control), read-out: Plant response rating, Soybean)?
**A.** 0%

**Q.** And the plant injury at 31 g/ha ([7]; Glycine max, pre-emergence, 31 g ai/ha, 0 to 100 scale, 0 no effect, 100 complete control, read-out: Plant response rating, Soybean)?
**A.** 0%

**Q.** What about the plant injury at 62 g/ha ([7]; Glycine max, pre-emergence, 62 g ai/ha, scale 0 to 100, read-out: Plant response rating, Soybean) of the same compound?
**A.** 0%

**Q.** And the “Soybean plant response rating” value ([7]; 8 g ai/ha, scale 0 to 100)?
**A.** 0

**Q.** What about the “Wheat plant response rating” value ([8]; 8 g ai/ha, scale 0 to 100) of the same compound?
**A.** 0

**Q.** And the plant injury at 16 g/ha ([8]; Triticum aestivum, pre-emergence, 16 g ai/ha, scale 0 to 100 (0 no effect, 100 complete control), read-out: Plant response rating, Wheat)?
**A.** 0%

**Q.** What about the plant injury at 31 g/ha ([8]; Triticum aestivum, pre-emergence, 31 g ai/ha, 0 to 100 scale, 0 no effect, 100 complete control, read-out: Plant response rating, Wheat) of the same compound?
**A.** 0%

**Q.** And the plant injury at 62 g/ha ([8]; Triticum aestivum, pre-emergence, 62 g ai/ha, scale 0 to 100, read-out: Plant response rating, Wheat)?
**A.** 10%

**Q.** And the pest or weed control at 16 g/ha ([9]; Bromus tectorum, pre-emergence, 16 g ai/ha, scale 0 to 100 (0 no effect, 100 complete control), read-out: Plant response rating, Bromegrass, Downy)?
**A.** 10%

**Q.** What about the pest or weed control at 31 g/ha ([9]; Bromus tectorum, pre-emergence, 31 g ai/ha, 0 to 100 scale, 0 no effect, 100 complete control, read-out: Plant response rating, Bromegrass, Downy) of the same compound?
**A.** 10%

**Q.** And the pest or weed control at 62 g/ha ([9]; Bromus tectorum, pre-emergence, 62 g ai/ha, scale 0 to 100, read-out: Plant response rating, Bromegrass, Downy)?
**A.** 85%

**Q.** And the “Bromegrass, Downy plant response rating” value ([9]; 8 g ai/ha, scale 0 to 100)?
**A.** 0

**Q.** And the pest or weed control at 16 g/ha ([10]; Amaranthus retroflexus, pre-emergence, 16 g ai/ha, scale 0 to 100 (0 no effect, 100 complete control), read-out: Plant response rating, Pigweed)?
**A.** 0%

**Q.** What about the pest or weed control at 31 g/ha ([10]; Amaranthus retroflexus, pre-emergence, 31 g ai/ha, 0 to 100 scale, 0 no effect, 100 complete control, read-out: Plant response rating, Pigweed) of the same compound?
**A.** 0%

**Q.** What about the pest or weed control at 62 g/ha ([10]; Amaranthus retroflexus, pre-emergence, 62 g ai/ha, scale 0 to 100, read-out: Plant response rating, Pigweed) of the same compound?
**A.** 0%

**Q.** What about the “Pigweed plant response rating” value ([10]; 8 g ai/ha, scale 0 to 100) of the same compound?
**A.** 0

**Q.** And the pest or weed control at 16 g/ha ([11]; Eleusine indica, pre-emergence, 16 g ai/ha, scale 0 to 100 (0 no effect, 100 complete control), read-out: Plant response rating, Goosegrass)?
**A.** 80%

**Q.** What about the pest or weed control at 31 g/ha ([11]; Eleusine indica, pre-emergence, 31 g ai/ha, 0 to 100 scale, 0 no effect, 100 complete control, read-out: Plant response rating, Goosegrass) of the same compound?
**A.** 100%

**Q.** And the pest or weed control at 62 g/ha ([11]; Eleusine indica, pre-emergence, 62 g ai/ha, scale 0 to 100, read-out: Plant response rating, Goosegrass)?
**A.** 100%

**Q.** And the “Goosegrass plant response rating” value ([11]; 8 g ai/ha, scale 0 to 100)?
**A.** 80

**Q.** What about the pest or weed control at 16 g/ha ([12]; Helianthus annuus, pre-emergence, 16 g ai/ha, scale 0 to 100 (0 no effect, 100 complete control), read-out: Plant response rating, Sunflower) of the same compound?
**A.** 0%

**Q.** And the pest or weed control at 31 g/ha ([12]; Helianthus annuus, pre-emergence, 31 g ai/ha, 0 to 100 scale, 0 no effect, 100 complete control, read-out: Plant response rating, Sunflower)?
**A.** 0%

**Q.** What about the pest or weed control at 62 g/ha ([12]; Helianthus annuus, pre-emergence, 62 g ai/ha, scale 0 to 100, read-out: Plant response rating, Sunflower) of the same compound?
**A.** 0%

**Q.** And the “Sunflower plant response rating” value ([12]; 8 g ai/ha, scale 0 to 100)?
**A.** 0
